The numbers were not newly measured in patent US8523569B2, “Controlled release local anesthetic for post dental surgery and method of use” (priority 2007, dated 2013), which cites them from elsewhere.

Each structure is given as a SMILES string. Bounds are passed on as bounds.

The conditions of the series: immediate release vasoconstrictor, known to the art.

For the compound `CNC[C@H](O)c1ccc(O)c(O)c1` [epinephrine], the “prolongation of local anesthetic activity, at best” value was ≤ 1 h.
